Test results from patent publication US20230225991A1, “COMPOUNDS FOR USE IN THE TREATMENT OF ACUTE INTERMITTENT PORPHYRIA” (VESTLANDETS INNOVASJONSSELSKAP AS, priority 2019, published 2023).

How the values were obtained:
WT-HMBS [1] = molecular target: T1, WT-HMBS (Homo sapiens, UniProt P08397); assay: Surface plasmon resonance (SPR), HMBS immobilized to sensor chip; settings: sigmoidal fitting of binding isotherm, 25° C., 0-200 μM compound; read-out: S0.5 (concentration for half-maximal binding), SPR
T1 construct: Full-length HMBS was cloned into pET-28a(+)-TEV vector and transformed into BL21 (DE3) cells for expression; 6xHis (N, cleaved yes); TEV protease cleavage site (N, cleaved yes); made in house; host or cells: E. coli BL21 (DE3)
T1 sequence (P08397 1-361): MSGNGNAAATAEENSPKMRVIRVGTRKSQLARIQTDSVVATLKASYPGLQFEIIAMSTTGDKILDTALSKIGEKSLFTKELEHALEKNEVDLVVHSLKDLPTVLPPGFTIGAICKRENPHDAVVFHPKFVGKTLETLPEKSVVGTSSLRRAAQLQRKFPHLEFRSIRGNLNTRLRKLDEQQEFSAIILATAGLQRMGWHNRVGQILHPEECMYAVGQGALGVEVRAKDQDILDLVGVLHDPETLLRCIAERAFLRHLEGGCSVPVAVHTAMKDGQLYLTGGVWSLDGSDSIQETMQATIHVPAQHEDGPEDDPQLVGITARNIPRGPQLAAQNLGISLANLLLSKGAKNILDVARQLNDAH
Method: Surface plasmon resonance experiments for the estimation of the concentration of compound at half-maximal binding (S0.5) were performed using a Biacore T200 (GE Healthcare) instrument at 25° C. 150 μg/ml WT-HMBS in 10 mM sodium acetate pH 4.5 was immobilized onto a CM5-S sensor chip through amine-coupling chemistry and PBS containing 0.05% surfactant P20 as running buffer, reaching immobilization levels ˜15,000. The baseline was equilibrated for 1-2 h, before the compounds were assayed in a concentration-dependent manner (0-200 μM), using running buffer with 5% DMSO and 30 μl/min flow rate. Contact and dissociation time was 60 s, with a final wash after 50% DMSO injection. Blank immobilization, solvent correction and negative control (assay buffer) were included for the analysis of the sensorgrams using the Biacore T200 Evaluation software v2.0. The allosteric sigmoidal curve fitting was performed using GraphPad Prism.
The binding of compounds BG-1 and BG-2 to HMBS was analyzed by surface plasmon resonance (SPR) and response units from concentration-dependent steady state measurements were analyzed assuming a 1:1 binding model. […] The interaction between compound BG-1 and HMBS was therefore further studied with Octet RED96 system with super streptavidin (SSA) biosensors. […]

[2] = test system: Hmbs-deficient T1/T2−/− mice; assay: Mouse trial T1/T2-B, phenobarbital-induced biochemical acute attack; format: in vivo; settings: 20 mg/kg/day, 12 days; for Hepatic HMBS enzyme activity in liver homogenates: compared with control group; for Urinary ALA and PBG excretion: versus control group; for Increase in steady-state levels of HMBS in liver tissue: quantitative western immunoblotting
Method: The crude liver homogenates were passed through Zeba spin desalting columns (Thermo Fisher Scientific) to remove small molecules <2000 Da. 50 mM HEPES pH 8.2 was used as equilibration buffer. 25 μl filtrated homogenate (400-500 μg total protein) was added to 110 μl sample mix (50 mM HEPES, pH 8.2, 1% Triton™ X-100) and incubated for 10 min at 37° C. before adding PBG (1 mM). The reaction was stopped after 1 h by adding ice-cooled 100% TCA to a final concentration of 25%, incubated at room temperature (RT) for 10 min and centrifuged at 10,000 g for 10 min. The absorption was measured in the supernatant at A409 with baseline correction at A380 using NanoDrop™ 2000c spectrophotometer (Thermo Fisher Scientific). The activity of HMBS was expressed as relative activity in the compound-treated […] compared to DMSO-controls. A blank sample was prepared for each homogenate. The unpaired t-test (two tailed) was performed using GraphPad Prism.
Liver homogenates (5 μg total protein/lane) were loaded onto 10% Mini-Protean® TGX™ gels (Bio-Rad) and separated with Tris/Glycine/SDS electrophoresis buffer (Bio-Rad). Trans-Blot® Turbo™ Transfer Starter System (Bio-Rad) was used to transfer the proteins onto Immun-Blot® low fluorescence PVDF membranes (Bio-Rad). The membranes were then blocked with TBS containing 1% Tween® 20 (1% TBS-T) and 3% BSA for 1 h. HMBS was probed with 1:2,000 monoclonal mouse anti-HMBS (H-11, Santa Cruz Biotechnology), together with 1:1,000 rabbit anti-actin (Sigma-Aldrich), in 1% TBS-T, 3% BSA overnight, 4° C. Alexa Fluor 647 conjugated donkey-anti-mouse and Alexa Fluor 488 conjugated donkey-anti-rabbit (both Thermo Fisher Scientific) were used as secondary antibodies and incubated in 1:1,000 dilutions in 0.1% TBS-T for 1 h. Each step was followed by extensive wash with 0.1% TBS-T. Fluorescence detection was performed using G-Box Chemi-XRQ (Syngene Synoptics, Cambridge, UK) with filters UV06 and 705 nm for AF-488 and AF-647, respectively, and the band intensities of HMBS relative to the loading control (actin) were determined using ImageJ (Schneider et al., Nature methods 2012; 9(7): 671-5).

WT-HMBS [3] = molecular target: T1, WT-HMBS; assay: Enzymatic activity assay of recombinant HMBS, standard conditions; format: biochemical; settings: 100 μM PBG at 37° C., 84 μM compound, 2% DMSO; relative to DMSO control
Method: The standard enzymatic activity of recombinant WT-HMBS was assayed at 37° C. as reported previously (Bustad et al., Bioscience reports, 2013; 33(4)). Compounds were added at a concentration of 84 μM. Absorbance of uroporphyrinogen I was determined at 405 nm. The enzyme activity in the presence of the compounds was normalized relative to DMSO-control (relative activity).
An enzymatic assay was performed to investigate the effect of compound BG-1 on the activity and conformational stability of HMBS. HMBS activity of the purified enzyme was measured in the absence and presence of compound BG-1 (at 84 μM) at standard conditions (37° C.) but also after pre-incubation at 70° C. for 20 min based on the high thermal stability of WT-HMBS.

| Kd (WT-HMBS [1]) [µM] | SMILES | Hepatic HMBS enzyme activity in liver homogenates [2] | Urinary ALA and PBG excretion [2] | Increase in steady-state levels of HMBS in liver tissue [2] [fold] | Relative activity, standard (WT-HMBS [3]) | Relative concentration of ALA in liver ([2]; p<0.05 compared with control mice) | Relative concentration of PBG in liver ([2]; p=0.053 compared with control mice) |
| --- | --- | --- | --- | --- | --- | --- | --- |
| 63 ± 3 | O=C(c1ccccc1)c1ccc(Cl)c([N+](=O)[O-])c1 [BG-2] | significantly increased enzyme activity | reduced | 2 |  |  |  |
|  | O=Cc1cc(Cc2ccccc2Cl)cc([N+](=O)[O-])c1O [BG-1] | significantly increased enzyme activity | reduced | 2 | 0.98 ± 0.06 | decreased | decreased |
